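Cells were grown in 96-well plates and exposed to each compound for 48 hours at five concentrations; endpoints were interpolated linearly between bracketing concentrations, or set to the highest concentration if not reached. TGI marks complete inhibition of growth.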
Legend:
Test in all cases: inhibition of tumour cell growth, NCI panel, 48 h
MCF7 breast = system: MCF7 breast
MOLT-4 leukemia = system: MOLT-4 leukemia
KM12 colon = system: KM12 colon
OVCAR-3 ovarian = system: OVCAR-3 ovarian
HOP-62 NSCLC = system: HOP-62 NSCLC
SR leukemia = system: SR leukemia
HOP-92 NSCLC = system: HOP-92 NSCLC
EKVX NSCLC = system: EKVX NSCLC
MDA-N = system: MDA-N
SK-MEL-2 melanoma = system: SK-MEL-2 melanoma

Row | SMILES | TGI (MCF7 breast) [µM] | TGI (MOLT-4 leukemia) [µM] | TGI (KM12 colon) [µM] | TGI (OVCAR-3 ovarian) [µM] | TGI (HOP-62 NSCLC) [µM] | TGI (SR leukemia) [µM] | TGI (HOP-92 NSCLC) [µM] | TGI (EKVX NSCLC) [µM] | TGI (MDA-N) [µM] | TGI (SK-MEL-2 melanoma) [µM]
1 | Cc1cc(C)n(-c2nc(C)c(CCO)c(=O)[nH]2)n1 | > 100 | > 100 | > 100 | > 100 | > 100 | > 100 | > 100 | > 100 | > 100 | –
2 | COc1cccc(CCNc2c(C#N)c3n(c4ccccc4[n+]3C)c3ncccc23)c1 | 5.13 | 7.45 | 4.53 | 48 | 43.8 | > 100 | > 58.9 | 36.5 | 11.1 | 43.3
3 | Cc1ccnc(Nc2[nH]c(C(=O)c3ccc(Cl)cc3)c(N)c2C(=S)Nc2ccccc2)c1 | 31.5 | 48.5 | 32.4 | 93 | 47.3 | 39 | 35.3 | 44.6 | 47.9 | 21.5
4 | COc1ccc(/C=C/C(=O)c2ccc(Br)cc2)cc1 | > 100 | > 100 | > 100 | – | > 100 | > 100 | – | > 100 | > 100 | > 100
5 | COc1ccc(-c2oc3cc(O)c(OC)c(O)c3c(=O)c2O)cc1 | 63.7 | 12.9 | > 100 | > 100 | 25.7 | 20.8 | > 72.3 | > 100 | > 100 | > 100
6 | COc1cc2c[n+](C)c3c4cc(OC)c(OCc5ccccc5)cc4c(OCc4ccccc4)cc3c2cc1OC | 21.9 | 14.2 | 23.8 | 10.8 | 39.3 | 6 | 8.51 | > 100 | 12 | 6.29
7 | CC(=O)NC(C)(C)C1CCC(C)CC1 (configuration not stated) | > 100 | > 100 | > 100 | > 100 | > 100 | > 100 | – | > 100 | > 100 | –
8 | C=CCOC(=O)Cn1ccc(=O)[nH]c1=O | > 100 | > 100 | > 100 | – | > 100 | > 100 | – | > 100 | > 100 | > 100
9 | Cn1cc2c3ccccc3nc-2c2ccccc21 | 10 | 2.74 | 6.78 | 6.88 | 4.16 | 2.1 | 4.3 | – | 5.95 | 3.52
10 | CC1CN(CCO)CCN1c1ccccc1 (configuration not stated) | > 100 | > 100 | > 100 | > 100 | > 100 | > 100 | > 100 | > 100 | > 100 | > 100
11 | COc1ccc(N2C(=O)/C(=C/c3ccc(N(CCC#N)CCC#N)cc3)N=C2c2ccccc2)cc1 | > 100 | > 100 | > 100 | > 100 | > 100 | > 100 | > 100 | > 100 | > 100 | > 100
12 | C=C(C)CCC1C=[N+]([O-])OC(C)(C)C1(C)C (configuration not stated) | > 100 | > 100 | > 100 | > 100 | > 100 | > 100 | > 100 | > 100 | > 100 | –
13 | CCOC(=O)c1nc2cc(Cl)ccc2[nH]c1=O | > 100 | > 100 | > 100 | > 100 | > 100 | > 100 | > 100 | > 100 | > 100 | > 100
14 | COc1ccc(-c2nnc3n(C)c4ccccc4n3c2=O)cc1 | > 100 | > 100 | > 100 | – | 37.5 | > 100 | > 100 | > 100 | > 100 | > 100
15 | O=C1CC(c2ccccc2)n2c(nc3ccccc32)N1 (configuration not stated) | > 100 | > 100 | > 100 | > 100 | > 100 | > 100 | > 100 | > 100 | > 100 | 47.9
16 | CN(C)CC1CCC/C(=C\c2ccc(OC(=O)/C=C/c3ccc(Cl)cc3)cc2)C1=O (configuration not stated) | 4.95 | 2.86 | 4.38 | 12.4 | 14.8 | 2.87 | 4.34 | 15.2 | 18.6 | 25.1
17 | CCN(C(=O)N[C@H](C(=O)N[C@@H](CSC)C(=O)N[C@@H](C)C(=O)OC)C(C)C)c1ccccc1 | 31.8 | 26.7 | 29.1 | 34.5 | 36.4 | 18.2 | 26.3 | 28.7 | 36.2 | 37.8
18 | C(=C/c1nnnn1-c1ccccc1)/Nc1ccccc1 | 64.8 | > 100 | > 100 | 96 | 81.6 | – | 87.3 | > 100 | 70.4 | 20.6
19 | C=C1CCOC2(C(O)C(C)(O)CO)NC(=O)C1(O)NC2=O (configuration not stated) | > 100 | > 100 | > 100 | > 100 | > 100 | > 100 | > 100 | > 100 | > 100 | > 100
20 | Cc1cc(O)c2c(c1)C(C1c3cccc(O)c3C(=O)c3c(O)cc(C)cc31)c1cccc(O)c1C2=O (configuration not stated) | 1.18 | 12.5 | 4.29 | 0.739 | 3 | 3.32 | 0.706 | 4.15 | 20.8 | 0.692
21 | CCC(Nc1ncnc2nc[nH]c12)C(=O)O (configuration not stated) | > 100 | – | > 100 | > 100 | > 100 | > 100 | > 100 | > 100 | > 100 | > 100
22 | N#CC1=C(N)N(/N=C/c2ccco2)C(c2ccco2)C1(C#N)C#N (configuration not stated) | 43.2 | 30.3 | 28.7 | 39 | 51.1 | 39.3 | 33.5 | 47.3 | 37.4 | 47.4
23 | CN(C)S(=O)(=O)c1nc(Cl)c2[nH]cnc2n1 | > 100 | > 100 | > 100 | > 100 | > 100 | > 100 | – | > 100 | > 100 | > 100
